Experimental data from patent US20050158775A1, “Novel plamid DNA comprising reoprter gene DNA and use of the same” (priority 1997, published 2005).

Columns and labels:
[1] = target: T1, Gal4-human PPAR α chimeric receptor protein (Homo sapiens, UniProt Q07869); assay type: cell-based
T1 construct: the 167th serine (Ser) to the 468th tyrosine (Tyr) of the human PPAR α receptor; expressed in transfected cells
T1 sequence (Q07869 167-468): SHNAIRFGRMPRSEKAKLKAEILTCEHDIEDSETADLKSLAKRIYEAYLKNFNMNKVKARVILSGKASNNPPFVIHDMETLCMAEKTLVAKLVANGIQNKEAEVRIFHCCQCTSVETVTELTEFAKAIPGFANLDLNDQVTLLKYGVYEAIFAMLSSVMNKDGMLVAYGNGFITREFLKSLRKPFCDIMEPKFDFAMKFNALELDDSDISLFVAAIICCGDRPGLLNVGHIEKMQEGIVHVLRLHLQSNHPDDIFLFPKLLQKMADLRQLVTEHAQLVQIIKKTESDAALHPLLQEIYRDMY

[2] = target: T2, Gal4-human PPAR δ chimeric receptor protein (Homo sapiens, UniProt Q03181); assay type: cell-based
T2 construct: the 139th serine (Ser) to the 441st tyrosine (Tyr) of the human PPAR δ receptor; expressed in transfected cells
T2 sequence (Q03181 139-441): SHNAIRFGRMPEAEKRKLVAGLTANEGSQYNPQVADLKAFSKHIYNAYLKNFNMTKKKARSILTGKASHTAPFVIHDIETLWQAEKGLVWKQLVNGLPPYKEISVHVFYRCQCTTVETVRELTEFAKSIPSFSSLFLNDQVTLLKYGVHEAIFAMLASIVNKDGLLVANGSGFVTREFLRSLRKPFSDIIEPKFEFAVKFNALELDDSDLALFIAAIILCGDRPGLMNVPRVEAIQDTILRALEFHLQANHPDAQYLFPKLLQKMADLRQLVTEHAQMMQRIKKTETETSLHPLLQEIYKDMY

[3] = target: T3, Gal4-human PPAR γ chimeric receptor protein (Homo sapiens, UniProt P37231)
T3 sequence (P37231 176-477 isoform P37231-2): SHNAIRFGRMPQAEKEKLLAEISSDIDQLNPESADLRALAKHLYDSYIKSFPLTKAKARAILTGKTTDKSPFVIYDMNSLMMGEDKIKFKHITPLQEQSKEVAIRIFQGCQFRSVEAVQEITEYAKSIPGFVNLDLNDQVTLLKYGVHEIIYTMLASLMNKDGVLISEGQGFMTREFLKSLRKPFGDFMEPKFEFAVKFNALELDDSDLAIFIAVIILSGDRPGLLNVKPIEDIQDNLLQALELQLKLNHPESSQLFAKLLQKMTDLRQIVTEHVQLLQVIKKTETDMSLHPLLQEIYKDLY

SMILES | cell death of PPAR α ligand-responsive cells [1] | cell death of PPAR δ ligand-responsive cells [2] | cell death of PPAR γ ligand-responsive cells [3]
CCCCCC#CCC#CCC#CCC#CCCCC(=O)O [ETYA] | cause dose-dependent cell death | do not cause cell death | 
Cc1cccc(Nc2cc(Cl)nc(SCC(=O)O)n2)c1C [Wy-14643] | cause dose-dependent cell death |  | do not cause cell death
